Values quoted from earlier work in patent US8207181B2, “Substituted dihydro, trihydro and tetrahydro cycloalkyloxazolopyrimidinones, preparation and use thereof” (Sanofi, priority 2008, dated 2012).

Legend:
healthy human subjects = conditions: pretreatment
[1] = tested on: pentylenetetrazole- and picrotoxin-induced seizures
schizophrenia = conditions: compared to placebo
animal models = conditions: some animal models

N[C@H](C(=O)O)c1ccc(C(=O)O)c(O)c1 [(S)-4-carboxy-3-hydroxyphenylglycine]
protection against audiogenic seizures (DBA/2 mice): protects against audiogenic seizures

N[C@@]1(C(=O)O)CC[C@H]2[C@H](C(=O)O)[C@H]21 [LY354740]
effect on ketamine disruption of working memory (healthy human subjects): attenuation of the disruptive effects of the NMDA glutamate receptor antagonist, ketamine, on working memory
effect on chemically induced seizures [1]: attenuates pentylenetetrazole- and picrotoxin-induced seizures

N[C@@]1(C(=O)O)CO[C@H]2[C@H](C(=O)O)[C@H]21 [LY379268]
effect on REM sleep and fast EEG (rat): suppresses rapid eye movement (REM) sleep and fast EEG

CSCC[C@H](N)C(=O)N[C@@]1(C(=O)O)CS(=O)(=O)[C@H]2[C@H](C(=O)O)[C@H]21 [LY2140023]
improvement in positive and negative symptoms of schizophrenia (schizophrenia): statistically significant improvements in both positive and negative symptoms of schizophrenia

N[C@]1(C(=O)O)[C@H]2[C@@H](C[C@H]1OCc1ccc(Cl)c(Cl)c1)[C@]2(F)C(=O)O [MGS0039]
antidepressant-like effects (animal models): dose-dependent antidepressant-like effects

Cc1c(OCc2cccc(-c3ccc(C(=O)O)cc3)c2)cc2c(c1C)C(=O)C(C1CCCC1)C2 (stereo not shown) [biphenyl-indanone A]
antipsychotic- and anxiolytic-like effects (mice): antipsychotic- and anxiolytic-like effects
